Assay results as given in patent publication US20240368104A1, “Novel Dialkoxynaphtho[2,3-C]Furan-1(3H)-One Derivatives and Pharmaceutical Composition For Preventing or Treating Respiratory Disease or SARS-COV-2 Infection Disease, Comprising Same” (priority 2021, published 2024).
pIC50: −log10 of the molar value. Where a name gives a salt, the structure may show the parent alone. Read-outs that look alike come from different tables or passages of the source.

Columns and labels:
SARS-COV-2 = test: microbe, parasite or virus in culture; type: cell-based; set-up: SI (Selectivity Index, CC50/IC50): unit not given here; conditions: for SI (Selectivity Index, CC50/IC50): SARS-COV-2, values >50 assumed to be 50; for pIC50: read-out: SARS-COV-2 inhibition (IC50)
in vitro = conditions: African green monkey
[1] = Severe acute respiratory syndrome coronavirus 2, Vero, 24 h
[2] = Severe acute respiratory syndrome coronavirus 2, Vero cells, 24 hours infection

COc1cc2cc3c(c(-c4cc5c(cc4OP(=O)(NCCN4CCOCC4)c4ccccc4)OCO5)c2cc1OC)C(=O)OC3 (stereo not drawn) [Example 280, 6-(6,7-dimethoxy-3-oxo-1,3-dihydronaphtho[2,3-c]furan-4-yl)benzo[d][1,3]dioxol-5-yl N-(2-morpholinoethyl)-P-phenylphosphoramidate]
SI (Selectivity Index, CC50/IC50) (SARS-COV-2): 25.56 | pIC50 (SARS-COV-2; [1]): 5.71 | CC50 (in vitro): > 50 µM

CCNc1ccc(-c2c3c(cc4cc(OC)c(OC)cc24)COC3=O)cc1 [Example 250, 9-(4-(ethylamino)phenyl)-6,7-dimethoxynaphtho[2,3-c]furan-1(3H)-one]
SI (Selectivity Index, CC50/IC50) (SARS-COV-2): 10.40 | pIC50 (SARS-COV-2; [2]): 5.32 | CC50 (in vitro): > 50 µM

COc1cc2cc3c(c(-c4cnc(N5C[C@@H](C)O[C@@H](C)C5)nc4)c2cc1OC)C(=O)OC3 [Example 8, 9-(2-((2S,6R)-2,6-dimethylmorpholino)pyrimidin-5-yl)-6,7-dimethoxynaphtho[2,3-c]furan-1(3H)-one]
SI (Selectivity Index, CC50/IC50) (SARS-COV-2): 17.39 | pIC50 (SARS-COV-2; [2]): 5.54 | CC50 (in vitro): > 50 µM

COCCN(CCOC)c1ccc(-c2c3c(cc4cc(OC)c(OC)cc24)COC3=O)cn1 [Example 174, 9-(6-(bis(2-methoxyethyl)amino)pyridin-3-yl)-6,7-dimethoxynaphtho[2,3-c]furan-1(3H)-one]
SI (Selectivity Index, CC50/IC50) (SARS-COV-2): 2.62 | pIC50 (SARS-COV-2; [2]): 4.72 | CC50 (in vitro): > 50 µM

COc1cc2cc3c(c(-c4cncc(OC(C)C)c4)c2cc1OC)C(=O)OC3 [Example 200, 9-(5-isopropoxypyridin-3-yl)-6,7-dimethoxynaphtho[2,3-c]furan-1(3H)-one]
SI (Selectivity Index, CC50/IC50) (SARS-COV-2): 1.77 | pIC50 (SARS-COV-2; [2]): 4.55 | CC50 (in vitro): > 50 µM

COc1cc2cc3c(c(-c4cnc(N5CCN(C)CC5)nc4)c2cc1OC)C(=O)OC3 [Example 7]
SI (Selectivity Index, CC50/IC50) (SARS-COV-2): 3.74 | pIC50 (SARS-COV-2; [2]): 4.87 | CC50 (in vitro): > 50 µM

COc1cc2cc3c(c(-c4ccc(N5C(=O)OC[C@@H]5Cc5ccccc5)nc4)c2cc1OC)C(=O)OC3 [Example 211, (S)-4-benzyl-3-(5-(6,7-dimethoxy-3-oxo-1,3-dihydronaphtho[2,3-c]furan-4-yl)pyridin-2-yl) oxazolidin-2-one]
SI (Selectivity Index, CC50/IC50) (SARS-COV-2): 12.50 | pIC50 (SARS-COV-2; [2]): 5.40 | CC50 (in vitro): > 50 µM

COc1cc2cc3c(c(-c4cc(C)nc5c(F)cccc45)c2cc1OC)C(=O)OC3 [Example 134, 9-(8-fluoro-2-methylquinolin-4-yl)-6,7-dimethoxynaphtho[2,3-c]furan-1(3H)-one]
SI (Selectivity Index, CC50/IC50) (SARS-COV-2): 1.0 | pIC50 (SARS-COV-2; [2]): < 4.30 | CC50 (in vitro): > 50 µM

CCCCCCCCCCN(CCCCCCCCCC)c1ncc(-c2c3c(cc4cc(OC)c(OC)cc24)COC3=O)cn1.Cl [Example 87, 9-(2-(didecylamino)pyrimidin-5-yl)-6,7-dimethoxynaphtho[2,3-c]furan-1(3H)-one hydrochloride]
SI (Selectivity Index, CC50/IC50) (SARS-COV-2): 1.00 | pIC50 (SARS-COV-2; [1]): < 4.30 | CC50 (in vitro): > 50 µM

COc1cc2cc3c(c(-c4cnc(N(C)c5ccc(C)c(C)c5)nc4)c2cc1OC)C(=O)OC3 [Example 109, 9-(2-((3,4-dimethylphenyl)(methyl)amino)pyrimidin-5-yl)-6,7-dimethoxynaphtho[2,3-c]furan-1(3H)-one]
SI (Selectivity Index, CC50/IC50) (SARS-COV-2): 18.73 | pIC50 (SARS-COV-2; [2]): 5.57 | CC50 (in vitro): > 50 µM

COc1cc2cc3c(c(N4CCNCC4)c2cc1OC)C(=O)OC3 [Example 128, 6,7-dimethoxy-9-(piperazin-1-yl)naphtho[2,3-c]furan-1(3H)-one]
SI (Selectivity Index, CC50/IC50) (SARS-COV-2): 1.78 | pIC50 (SARS-COV-2; [1]): 4.55 | CC50 (in vitro): > 50 µM

COc1cc2cc3c(c(N4CCN(c5cc(Cl)nc(SC)n5)CC4)c2cc1OC)C(=O)OC3 [Example 130, 9-(4-(6-chloro-2-(methylthio)pyrimidin-4-yl)pilerazin-1-yl)-6,7-dimethoxynaphtho[2,3-c]furan-1(3H)-one]
SI (Selectivity Index, CC50/IC50) (SARS-COV-2): 1.0 | pIC50 (SARS-COV-2; [2]): < 4.30 | CC50 (in vitro): > 50 µM

COc1cc2cc(CO)c(C(=O)Cl)c(-c3cc4c(cc3O)OCO4)c2cc1OC [Example 224, 1-(6-hydroxybenzo[d][1,3]dioxol-5-yl)-3-(hydroxymethyl)-6,7-dimethoxy-2-naphthoyl chloride]
SI (Selectivity Index, CC50/IC50) (SARS-COV-2): 2.63 | pIC50 (SARS-COV-2; [2]): 5.72 | CC50 (in vitro): > 50 µM

COc1cc2cc3c(c(-c4cnc(N5CCc6sccc6C5)nc4)c2cc1OC)C(=O)OC3 [Example 12, 9-(2-(6,7-dihydrothieno[3,2-c]pyridin-5 (4H)-yl)pyrimidin-5-yl)-6,7-dimethoxynaphtho[2,3-c]furan-1(3H)-one]
SI (Selectivity Index, CC50/IC50) (SARS-COV-2): 60.38 | pIC50 (SARS-COV-2; [2]): 6.08 | CC50 (in vitro): > 50 µM

COc1cc2cc3c(c(-c4cnc(N5CCCCC5CO)nc4)c2cc1OC)C(=O)OC3 (stereo not drawn) [Example 104, 9-(2-(2-(hydroxymethyl)piperidin-1-yl)pyrimidin-5-yl)-6,7-dimethoxynaphtho[2,3-c]furan-1(3H)-one hydrochloride]
SI (Selectivity Index, CC50/IC50) (SARS-COV-2): 1.0 | pIC50 (SARS-COV-2; [1]): < 4.30 | CC50 (in vitro): > 50 µM

COCCN(C)c1ccc(-c2c3c(c(OC)c4cc(OC)c(OC)cc24)C(=O)OC3)cn1.Cl [Example 265, 6,7,9-trimethoxy-4-(6-((2-methoxyethyl)(methyl)amino)pyridin-3-yl)naphtho[2,3-c]furan-1(3H)-one]
SI (Selectivity Index, CC50/IC50) (SARS-COV-2): 1.51 | pIC50 (SARS-COV-2; [1]): 4.48 | CC50 (in vitro): > 50 µM

COc1cc2cc3c(c(-c4ccc(N(C)C5CCCCC5)nc4)c2cc1OC)C(=O)OC3 [Example 175, 9-(6-(cyclohexyl(methyl)amino)pyridin-3-yl)-6,7-dimethoxynaphtho[2,3-c]furan-1(3H)-one]
SI (Selectivity Index, CC50/IC50) (SARS-COV-2): 42.02 | pIC50 (SARS-COV-2; [2]): 5.92 | CC50 (in vitro): > 50 µM

COc1cc2cc3c(c(-c4cnc(N5CCc6ccccc6[C@@H]5c5ccccc5)nc4)c2cc1OC)C(=O)OC3 [Example 151, (S)-6,7-dimethoxy-9-(2-(1-phenyl-3,4-dihydroisoquinolin-2 (1H)-yl)pyrimidin-5-yl)naphtho[2,3-c]furan-1(3H)-one]
SI (Selectivity Index, CC50/IC50) (SARS-COV-2): 1.0 | pIC50 (SARS-COV-2; [2]): < 4.30 | CC50 (in vitro): > 50 µM

CCCN(CC1CC1)c1ncc(-c2c3c(cc4cc(OC)c(OC)cc24)COC3=O)cn1 [Example 105, 9-(2-((cyclopropylmethyl)(propyl)amino)pyrimidin-5-yl)-6,7-dimethoxynaphtho[2,3-c]furan-1(3H)-one hydrochloride]
SI (Selectivity Index, CC50/IC50) (SARS-COV-2): 9.56 | pIC50 (SARS-COV-2; [1]): 5.28 | CC50 (in vitro): > 50 µM

COc1cc2cc3c(c(-c4ccc(N5CCC(N(C)C)CC5)nc4)c2cc1OC)C(=O)OC3.Cl [Example 238, 9-(6-(4-(dimethylamino)piperidin-1-yl)pyridin-3-yl)-6,7-dimethoxynaphtho[2,3-c]furan-1(3H)-one]
SI (Selectivity Index, CC50/IC50) (SARS-COV-2): 2.84 | pIC50 (SARS-COV-2; [1]): 4.75 | CC50 (in vitro): > 50 µM

COc1cc2cc3c(c(-c4cnc(N5CCC(N(C)C)CC5)nc4)c2cc1OC)C(=O)OC3 [Example 205, 9-(2-(4-(dimethylamino)piperidin-1-yl)pyrimidin-5-yl)-6,7-dimethoxynaphtho[2,3-c]furan-1(3H)-one]
SI (Selectivity Index, CC50/IC50) (SARS-COV-2): 7.75 | pIC50 (SARS-COV-2; [2]): 5.19 | CC50 (in vitro): > 50 µM

CNc1ncc(-c2c3c(cc4cc(OC)c(OC)cc24)COC3=O)cn1 [Example 108, 6,7-dimethoxy-9-(2-(methylamino)pyrimidin-5-yl)naphtho[2,3-c]furan-1(3H)-one]
SI (Selectivity Index, CC50/IC50) (SARS-COV-2): 18.03 | pIC50 (SARS-COV-2; [2]): 5.56 | CC50 (in vitro): > 50 µM

COCCN(C)C(=O)[C@@H]1CCCN1c1ncc(-c2c3c(cc4cc(OC)c(OC)cc24)COC3=O)cn1 [Example 33, (S)-1-(5-(6,7-dimethoxy-3-oxo-1,3-dihydronaphtho[2,3-c]furan-4-yl)pyrimidin-2-yl)-N-(2-methoxyethyl)-N-methylpyrrolidin-2-carboxamide]
SI (Selectivity Index, CC50/IC50) (SARS-COV-2): 1.00 | pIC50 (SARS-COV-2; [2]): < 4.30 | CC50 (in vitro): > 50 µM

CCN(CC)CCNc1c2c(cc3cc(OC)c(OC)cc13)COC2=O [Example 6, 9-((2-(diethylamino)ethyl)amino)-6,7-dimethoxynaphtho[2,3-c]furan-1(3H)-one]
SI (Selectivity Index, CC50/IC50) (SARS-COV-2): 1.00 | pIC50 (SARS-COV-2; [2]): < 4.30 | CC50 (in vitro): > 50 µM

COc1cc2cc3c(c(-c4cc(C)nc5c(F)cc(F)cc45)c2cc1OC)C(=O)OC3 [Example 139, 9-(6,8-difluoro-2-methylquinolin-4-yl)-6,7-dimethoxynaphtho[2,3-c]furan-1(3H)-one]
SI (Selectivity Index, CC50/IC50) (SARS-COV-2): 1.0 | pIC50 (SARS-COV-2; [2]): < 4.30 | CC50 (in vitro): > 50 µM

CCN(CC1CCCO1)c1ccc(-c2c3c(cc4cc(OC)c(OC)cc24)COC3=O)cn1 (stereo not drawn) [Example 193, 9-(6-(ethyl((tetrahydrofuran-2-yl)methyl)amino)pyridin-3-yl)-6,7-dimethoxynaphtho[2,3-c]furan-1(3H)-one]
SI (Selectivity Index, CC50/IC50) (SARS-COV-2): 6.46 | pIC50 (SARS-COV-2; [2]): 5.11 | CC50 (in vitro): > 50 µM

COc1cc2cc3c(c(-c4cc5c(cc4OC(=O)c4cccnc4)OCO5)c2cc1OC)C(=O)OC3 [Example 272, 6-(6,7-dimethoxy-3-oxo-1,3-dihydronaphtho[2,3-c]furan-4-yl)benzo[d][1,3]dioxol-5-yl nicotinate]
SI (Selectivity Index, CC50/IC50) (SARS-COV-2): 27.23 | pIC50 (SARS-COV-2; [2]): 5.74 | CC50 (in vitro): > 50 µM

COc1cc2cc3c(c(-c4ccc5nc(C)ccc5c4)c2cc1OC)C(=O)OC3 [Example 116, 6,7-dimethoxy-9-(2-methylquinolin-6-yl)naphtho[2,3-c]furan-1(3H)-one]
SI (Selectivity Index, CC50/IC50) (SARS-COV-2): 43.72 | pIC50 (SARS-COV-2; [2]): 5.94 | CC50 (in vitro): > 50 µM

COc1cc2cc3c(c(-c4ccnc(Cl)c4)c2cc1OC)C(=O)OC3 [Example 184, 9-(2-chloropyridin-4-yl)-6,7-dimethoxynaphtho[2,3-c]furan-1(3H)-one]
SI (Selectivity Index, CC50/IC50) (SARS-COV-2): 1.0 | pIC50 (SARS-COV-2; [2]): < 4.30 | CC50 (in vitro): > 50 µM

COc1cc2cc3c(c(-c4ccc(-n5nc(N(C)C)nc5SC)nc4)c2cc1OC)C(=O)OC3.Cl [Example 223, 9-(6-(3-(dimethylamino)-5-(methylthio)-1H-1,2,4-triazol-1-yl)pyridin-3-yl)-6,7-dimethoxynaphtho[2,3-c]furan-1(3H)-one]
SI (Selectivity Index, CC50/IC50) (SARS-COV-2): 3.11 | pIC50 (SARS-COV-2; [1]): 4.79 | CC50 (in vitro): > 50 µM
